Consider 6 compounds from patent US20190241864A1, “Composition Comprising Non-Germinant and Bacterial Spores” (NOVOZYMES BIOAG A/S, priority 2016, published 2019).

Assay [1] relates to spores from Bacillus amyloliquefaciens strain SB3615. Briefly: Germinant testing of heat-activated spores, decrease in relative OD580. To be noted: substance alone, 3 mM; 37° C., 70 minutes.
Assay [2] concerns spores from Bacillus pumilus strain SB3189. The assay is described as above. It is filed as cell-based. To be noted: 3 mM.
Assay [3] has as its system Bacillus megaterium strain SB3112 spores. Briefly: Spore germination by DPA release after L-asparagine treatment. It is filed as cell-based. To be noted: for Gmax: mean of 3.
Assay [4] relates to spores from Bacillus megaterium strain SB3112. The assay can be described thus: Germinant testing of heat-activated spores, decrease in relative OD580. It is filed as cell-based. To be noted: Example 2 studies, 3 mM.
For assay [5], the system named is Bacillus pumilus strain SB3189 spores. The assay can be described thus: Spore germination by dipicolinic acid (DPA) release (Tb-DPA fluorescence) after L-valine treatment. It is filed as cell-based. To be noted: for Gmax: then 10 mM AAGFK, mean of 3. The protocol:
This was performed three consecutive times.
Germination of spores in these studies was determined by measuring dipicolinic acid (DPA). DPA is about 10% of the mass of endospores, all of which is generally released when germination is triggered. Boiling spores generally releases all of the DPA. DPA release was detected using terbium chloride (TbCl3), as described below.
To perform the germination assays, 30 μl of spores were added to wells of a 96-well flat-bottom microtiter plate. Subsequently, 35 μl of a 250 μM TbCl3 stock was added. At time 0, 85 μl of a 10 mM L-alanine+10 mM AGFK (10 mM AGFK is 10 mM each of L-asparagine, D-glucose, D-fructose, and KCl) (10 mM AAGFK) was added. […] Tb-DPA is excited at 270 nm and emits at 545 nm. All experimental samples were tested in triplicate. Baseline controls for each sample were generated by omitting L-alanine and these were performed in duplicate. All sample wells were measured immediately after […] was added (time 0) and then over time. For each time point, the data were normalized to values for the spores that had been boiled for two hours to force 100% release of DPA from the spores.

Consider `C[C@H](N)C(=O)O` [L-alanine], for which the germination of spores result in assay [1] is recorded as “could cause germination”. Further, the “germination of spores by substance alone” value in assay [2] is given as “None of L-alanine, L-cysteine, D-fructose, or sucrose alone, at a concentration of 3 mM, caused germination”.

Consider `OC[C@H]1O[C@@](CO)(O[C@H]2O[C@H](CO)[C@@H](O)[C@H](O)[C@H]2O)[C@@H](O)[C@@H]1O` [sucrose], for which, in assay [2], the “germination of spores by substance alone” value is listed as “None of L-alanine, L-cysteine, D-fructose, or sucrose alone, at a concentration of 3 mM, caused germination”.

For the compound `NC(=O)C[C@H](N)C(=O)O` [L-asparagine], the “Gmax compared to spores not pretreated with L-asparagine” value is recorded as “increased Gmax” in assay [3] (4° C., native and heat-activated spores, all tested concentrations); “increased Gmax” in assay [3] (22° C., 3.0 mM, both native and heat-activated spores); “also increased Gmax” in assay [3] (22° C., 10 mM, native spores). The Gmax in assay [3] (heat activated spores, 0.5 mM L-asparagine overnight at 4° C.) came out at 106%; in assay [3] (heat activated spores, 0.5 mM L-asparagine overnight at 22° C.), 81%; in assay [3] (heat activated spores, 3.0 mM L-asparagine overnight at 4° C.), 109%; in assay [3] (heat activated spores, 3.0 mM L-asparagine overnight at 22° C.) it was 102%; in assay [3] (heat activated spores, 10.0 mM L-asparagine overnight at 4° C.), 114%; in assay [3] (heat activated spores, 10.0 mM L-asparagine overnight at 22° C.) it was 79%. Also, the Gmax in assay [3] (native spores, 0.5 mM L-asparagine overnight at 4° C.) is listed as 29%; in assay [3] (native spores, 0.5 mM L-asparagine overnight at 22° C.), 56%; in assay [3] (native spores, 3.0 mM L-asparagine overnight at 4° C.), 28%; in assay [3] (native spores, 3.0 mM L-asparagine overnight at 22° C.) it was 100%; in assay [3] (native spores, 10.0 mM L-asparagine overnight at 4° C.), 29%; in assay [3] (native spores, 10.0 mM L-asparagine overnight at 22° C.), 81%. Also, the germinant behavior entry in assay [4] was “not shown to have germinant behavior”.

With `N[C@@H](CS)C(=O)O` [L-cysteine], the “germination of spores by substance alone” value in assay [2] was “None of L-alanine, L-cysteine, D-fructose, or sucrose alone, at a concentration of 3 mM, caused germination”.

Consider `O=C(CO)[C@@H](O)[C@H](O)[C@H](O)CO` [D-fructose], for which the “germination of spores by substance alone” value in assay [2] is listed as “None of L-alanine, L-cysteine, D-fructose, or sucrose alone, at a concentration of 3 mM, caused germination”.

Turning to `CC(C)[C@H](N)C(=O)O` [L-valine], the Gmax is listed as 74% in assay [5] (0.5 mM L-valine 24 hours at 4° C.); 6% in assay [5] (0.5 mM L-valine 24 hours at 22° C.); 70% in assay [5] (3.0 mM L-valine 24 hours at 4° C.); 43% in assay [5] (3.0 mM L-valine 24 hours at 22° C.); 76% in assay [5] (10.0 mM L-valine 24 hours at 4° C.); 77% in assay [5] (10.0 mM L-valine 24 hours at 22° C.). For the same compound, the “change of Gmax” value in assay [5] (0.5 mM L-valine at 22° C.) is reported as “the Gmax decreased”. For the same compound, the “increase in Gmax compared to the control that did not contain L-valine” value is around 3 fold in assay [5] (3.0 mM L-valine at 22° C.) and around 5 fold in assay [5] (10.0 mM L-valine at 22° C.). The “change of Tlag” value in assay [5] (L-valine 0.5-10.0 mM, 4° C. and 22° C.) is “Tlag was not changed”. In assay [5] (L-valine incubated with spores at 4° C.), the “effects on germination parameters” value is on record as “small effects on germination parameters”. For the same compound, the germinant activity result in assay [2] (tested in combination with individual sugars, and in combination with salts) is “did not show germinant activity”.
